Measurements: US3948899A, “α-Cyanobenzylpiperazines and a process for producing the same” (Fuji Chemical Industry Co., Ltd., priority 1973, dated 1976)

What was measured:
mongrel adult dogs [1] = assay: Effects on the work done by the left ventricle (thoractomized anesthetized dogs, i.v.); type: in vivo, dog
Method: (§1) All experiments were conducted on male and female thoractomized mongrel adult dogs weighing about 10 Kg under anesthesia with pentobarbital sodium.
(§2) Arterial blood pressure was measured by pressure transducer (Nippon Koden MPU-0.5) connected with the cannula inserted from exposed carotid artery into aorta. Aortic blood flow was determined by means of electromagnetic flow meter (Nippon Koden MF-5) mounted at an origin of aorta. Coronary sinus out flow and coronary sinus oxygen tension were assessed by means of electromagnetic flow meter (Nippon Koden MF-5) and Po2 Macro electrode (Beckmann Moder 160-C), respectively, using Morawitz cannulization technique. Heart rate was measured by cardiotachometer (Nippon Koden RT-2) synchronized with systolic blood pressure of aorta.
The work done by the left ventricle is calculated according to the following equation: […]

[2] = Acute toxicity (LD50; per os, mice); type: in vivo; details: mouse, in vivo, po, dd-0train male mice
Method: (§3) 7. Acute Toxicity (See Table 7) Acute toxicity (LD50; per os, mice) was measured in dd-0train male mice.

dd-0train male mice = assay: Acute toxicity (LD50; per os, mice); type: in vivo
Method: as §3

mongrel adult dogs [3] = assay: Effects on heart rate (thoractomized anesthetized dogs, i.v.); type: in vivo, dog
Method: as §1, §2

mongrel adult dogs [4] = assay: Effects on arterial mean blood pressure (thoractomized anesthetized dogs, i.v.); type: in vivo, dog
Method: as §1, §2

mongrel adult dogs [5] = assay: Effects on coronary sinus out flow (thoractomized anesthetized dogs, i.v.); type: in vivo, dog
Method: as §1, §2

mongrel adult dogs [6] = assay: Effects on coronary sinus oxygen tension (thoractomized anesthetized dogs, i.v.); type: in vivo, dog
Method: as §1, §2

mongrel adult dogs [7] = assay: Effects on aortic blood flow (thoractomized anesthetized dogs, i.v.); type: in vivo, dog
Method: as §1, §2

## CCOC(=O)N1CCN(C(C#N)c2ccc(OC)c(OC)c2)CC1 (stereo not drawn) [Compound B-01, N-(α-cyano-3,4-dimethoxybenzyl)-N'-ethoxycarbonyl piperazine]
Mongrel adult dogs [1]; i.v. 2.0 mg/Kg, 1 min
  Changes(%) of basal values, work of left ventricle: +2.7%
Mongrel adult dogs [1]; i.v. 2.0 mg/Kg, 5 min
  Changes(%) of basal values, work of left ventricle: +0.8%
Mongrel adult dogs [1]; i.v. 2.0 mg/Kg, 10 min
  Changes(%) of basal values, work of left ventricle: -2.0%
Mongrel adult dogs [1]; i.v. 2.0 mg/Kg, 15 min
  Changes(%) of basal values, work of left ventricle: -2.6%
Mongrel adult dogs [1]; i.v. 2.0 mg/Kg, 20 min
  Changes(%) of basal values, work of left ventricle: -2.9%
Mongrel adult dogs [1]; i.v. 2.0 mg/Kg, 25 min
  Changes(%) of basal values, work of left ventricle: -3.1%
Mongrel adult dogs [1]; i.v. 2.0 mg/Kg, 30 min
  Changes(%) of basal values, work of left ventricle: -3.6%
Mongrel adult dogs [1]; i.v. 2.0 mg/Kg, imm.
  Changes(%) of basal values, work of left ventricle: -3.6%
Mongrel adult dogs [1]; i.v. 6.0 mg/Kg, 1 min
  Changes(%) of basal values, work of left ventricle: +2.3%
Mongrel adult dogs [1]; i.v. 6.0 mg/Kg, 5 min
  Changes(%) of basal values, work of left ventricle: -1.7%
Mongrel adult dogs [1]; i.v. 6.0 mg/Kg, 10 min
  Changes(%) of basal values, work of left ventricle: -5.9%
Mongrel adult dogs [1]; i.v. 6.0 mg/Kg, 15 min
  Changes(%) of basal values, work of left ventricle: -8.3%
Mongrel adult dogs [1]; i.v. 6.0 mg/Kg, 20 min
  Changes(%) of basal values, work of left ventricle: -5.3%
Mongrel adult dogs [1]; i.v. 6.0 mg/Kg, 25 min
  Changes(%) of basal values, work of left ventricle: -2.0%
Mongrel adult dogs [1]; i.v. 6.0 mg/Kg, 30 min
  Changes(%) of basal values, work of left ventricle: -2.8%
Mongrel adult dogs [1]; i.v. 6.0 mg/Kg, imm.
  Changes(%) of basal values, work of left ventricle: -0.1%
Mongrel adult dogs [1]; i.v. 20.0 mg/Kg, 1 min
  Changes(%) of basal values, work of left ventricle: -10.9%
Mongrel adult dogs [1]; i.v. 20.0 mg/Kg, 5 min
  Changes(%) of basal values, work of left ventricle: -8.4%
Mongrel adult dogs [1]; i.v. 20.0 mg/Kg, 10 min
  Changes(%) of basal values, work of left ventricle: -9.2%
Mongrel adult dogs [1]; i.v. 20.0 mg/Kg, 15 min
  Changes(%) of basal values, work of left ventricle: -14.8%
Mongrel adult dogs [1]; i.v. 20.0 mg/Kg, 20 min
  Changes(%) of basal values, work of left ventricle: -14.3%
Mongrel adult dogs [1]; i.v. 20.0 mg/Kg, 25 min
  Changes(%) of basal values, work of left ventricle: -16.1%
Mongrel adult dogs [1]; i.v. 20.0 mg/Kg, 30 min
  Changes(%) of basal values, work of left ventricle: -14.1%
Mongrel adult dogs [1]; i.v. 20.0 mg/Kg, imm.
  Changes(%) of basal values, work of left ventricle: -8.5%
Mongrel adult dogs [1]; i.v., dogs
  Duration of effect on the work of the left ventricle (in words): longer duration
  Effect on the work of the left ventricle (in words): decrease in the work of the left ventricle
[2]
  LD50: 2200 mg/kg
dd-0train male mice; dd-0train male mice
  LD50: 2200 mg/kg
dd-0train male mice; mice
  Acute toxicity relative to Vastarel F (in words): significantly less toxicity than that of Vastarel F
Mongrel adult dogs [3]; i.v. 2.0 mg/Kg, 15 min
  Changes(%) of basal values, heart rate: 0%
Mongrel adult dogs [3]; i.v. 2.0 mg/Kg, 25 min
  Changes(%) of basal values, heart rate: 0%
Mongrel adult dogs [3]; i.v. 6.0 mg/Kg, 15 min
  Changes(%) of basal values, heart rate: +0.6%
Mongrel adult dogs [3]; i.v. 6.0 mg/Kg, 25 min
  Changes(%) of basal values, heart rate: +1.0%
Mongrel adult dogs [3]; i.v. 20.0 mg/Kg, 15 min
  Changes(%) of basal values, heart rate: -2.6%
Mongrel adult dogs [3]; i.v. 20.0 mg/Kg, 25 min
  Changes(%) of basal values, heart rate: -6.3%
Mongrel adult dogs [3]; i.v., dogs
  Effect on heart rate (in words): sight negative chromotropic effect
Mongrel adult dogs [4]; i.v. 2.0 mg/Kg, 15 min
  Changes(%) of basal values, arterial mean blood pressure: -4.5%
Mongrel adult dogs [4]; i.v. 2.0 mg/Kg, 25 min
  Changes(%) of basal values, arterial mean blood pressure: -4.0%
Mongrel adult dogs [4]; i.v. 6.0 mg/Kg, 15 min
  Changes(%) of basal values, arterial mean blood pressure: -6.3%
Mongrel adult dogs [4]; i.v. 6.0 mg/Kg, 25 min
  Changes(%) of basal values, arterial mean blood pressure: -3.0%
Mongrel adult dogs [4]; i.v. 20.0 mg/Kg, 15 min
  Changes(%) of basal values, arterial mean blood pressure: -17.7%
Mongrel adult dogs [4]; i.v. 20.0 mg/Kg, 25 min
  Changes(%) of basal values, arterial mean blood pressure: -17.4%
Mongrel adult dogs [4]; i.v., dogs
  Duration of hypotensive effect (in words): longer duration
  Effect on arterial mean blood pressure (in words): hypotensive effects
Mongrel adult dogs [5]; i.v. 2.0 mg/Kg, 15 min
  Changes(%) of basal values, coronery sinus out flow: +4.4%
Mongrel adult dogs [5]; i.v. 2.0 mg/Kg, 25 min
  Changes(%) of basal values, coronery sinus out flow: +3.0%
Mongrel adult dogs [5]; i.v. 6.0 mg/Kg, 15 min
  Changes(%) of basal values, coronery sinus out flow: +10.9%
Mongrel adult dogs [5]; i.v. 6.0 mg/Kg, 25 min
  Changes(%) of basal values, coronery sinus out flow: +8.0%
Mongrel adult dogs [5]; i.v. 20.0 mg/Kg, 15 min
  Changes(%) of basal values, coronery sinus out flow: +38.2%
Mongrel adult dogs [5]; i.v. 20.0 mg/Kg, 25 min
  Changes(%) of basal values, coronery sinus out flow: +20.3%
Mongrel adult dogs [5]; i.v., dogs
  Dose dependence and duration of effect on coronary sinus out flow (in words): proportioned to doses and of longer duration
  Effect on coronary sinus out flow (in words): marked increasing effect on coronary sinus out flow
Mongrel adult dogs [6]; i.v. 2.0 mg/Kg, 15 min
  Changes(%) of basal values, coronary sinus oxygen tension: +12.0%
Mongrel adult dogs [6]; i.v. 2.0 mg/Kg, 25 min
  Changes(%) of basal values, coronary sinus oxygen tension: +12.5%
Mongrel adult dogs [6]; i.v. 6.0 mg/Kg, 10 min
  Changes(%) of basal values, coronary sinus oxygen tension: +3.0%
Mongrel adult dogs [6]; i.v. 6.0 mg/Kg, 15 min
  Changes(%) of basal values, coronary sinus oxygen tension: +25.5%
Mongrel adult dogs [6]; i.v. 6.0 mg/Kg, 25 min
  Changes(%) of basal values, coronary sinus oxygen tension: +16.2%
Mongrel adult dogs [6]; i.v. 20.0 mg/Kg, 5 min
  Changes(%) of basal values, coronary sinus oxygen tension: +89.0%
Mongrel adult dogs [6]; i.v. 20.0 mg/Kg, 15 min
  Changes(%) of basal values, coronary sinus oxygen tension: +90.1%
Mongrel adult dogs [6]; i.v. 20.0 mg/Kg, 25 min
  Changes(%) of basal values, coronary sinus oxygen tension: +63.0%
Mongrel adult dogs [6]; i.v., dogs
  Duration of effect on coronary sinus oxygen tension (in words): proportioned to an increase in coronary sinus out flow and of longer duration
  Effect on coronary sinus oxygen tension (in words): significant increase in coronary sinus oxygen tension
Mongrel adult dogs [7]; i.v. 2.0 mg/Kg, 15 min
  Changes(%) of basal values, aortic blood flow: +2.0%
Mongrel adult dogs [7]; i.v. 2.0 mg/Kg, 25 min
  Changes(%) of basal values, aortic blood flow: +1.0%
Mongrel adult dogs [7]; i.v. 6.0 mg/Kg, 15 min
  Changes(%) of basal values, aortic blood flow: +0.1%
Mongrel adult dogs [7]; i.v. 6.0 mg/Kg, 25 min
  Changes(%) of basal values, aortic blood flow: +1.0%
Mongrel adult dogs [7]; i.v. 20.0 mg/Kg, 15 min
  Changes(%) of basal values, aortic blood flow: +3.6%
Mongrel adult dogs [7]; i.v. 20.0 mg/Kg, 25 min
  Changes(%) of basal values, aortic blood flow: +1.6%
Mongrel adult dogs [7]; i.v., dogs
  Increase of aortic blood flow: 2-8%
  Later effect on aortic blood flow / its duration (in words): longer duration
Mongrel adult dogs [7]; i.v., dogs, immediately
  Effect on aortic blood flow immediately after administration (in words): no decrease in blood flow immediately after medication
